Reference: ChEMBL document CHEMBL1201862, “PubChem BioAssay data set” (2004)
Activity calls are given as the source filed them.

Tests used:
[1] = tested on: H4; test: Luminescence Cell-Based Dose Response HTS to Identify Activators of 5'UTR Stem-Loop Driven Prion Protein mRNA Translation in H4 Neuroglioblastoma Cells. [Related pubchem assays: 1829 (Project Summary), 1814 (Primary HTS)]; format: functional; details: Homo sapiens
[2] = Luminescence Cell-Based Dose Confirmation HTS to Identify Activators of 5'UTR Stem-Loop Driven Alpha-Synuclein mRNA Translation in H4 Neuroglioblastoma Cells. [Related pubchem assays: 1829 (Project Summary), 1814 (Primary HTS)]; format: functional
[3] = Luminescence Cell-Based Dose Response HTS to Identify Activators of Luciferase Translation or Activity in H4 […] Cells. [Related pubchem assays: 1829 (Project Summary), 1814 (Primary HTS)]; format: functional
[4] = biological target: T1, Carboxy-terminal domain RNA polymerase II polypeptide A small phosphatase 1 (Homo sapiens, UniProt Q9GZU7); test: inhibitors of CTDSP1, concentration-response testing, biochemical assay, absorbance-based, actives from ultra-high-throughput screening (AID 540297); format: functional
T1 sequence (Q9GZU7 whole entry): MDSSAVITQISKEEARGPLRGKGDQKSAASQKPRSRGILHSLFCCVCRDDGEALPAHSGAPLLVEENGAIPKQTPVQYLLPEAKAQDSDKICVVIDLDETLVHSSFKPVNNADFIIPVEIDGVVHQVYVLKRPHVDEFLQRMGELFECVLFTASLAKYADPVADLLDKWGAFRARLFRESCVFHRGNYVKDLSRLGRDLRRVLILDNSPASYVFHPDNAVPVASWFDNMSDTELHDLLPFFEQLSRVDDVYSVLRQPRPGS

[5] = growth suppression of beta-catenin-knockout colon cells, dose response, cell-based, HCT116, human colon tumor (AID 1045); format: functional;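 note: HCT116 colon tumor cells with beta catenin knocked out; cells exposed to compound for 60 hours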
[6] = growth suppression of PTEN-null colon cells, dose response, cell-based, HCT116 PTEN knockout (AID 1047); format: functional;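 note: HCT116 colon tumor cells with PTEN knocked out; cells exposed to compound for 60 hours before readout; potency for loss of cell viability measured by luminescence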
[7] = C. albicans growth with fluconazole, confirmation, fluorescence, retest (AID 2467); format: functional, cell-based
[8] = NIH-3T3 fibroblast cytotoxicity, dose response, cytotoxicity control, cell-based, fluorescence, Alamar Blue, secondary assay (AID 2327); format: functional;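 note: NIH-3T3 mouse fibroblasts cultured with fluconazole at 8 µg/mL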
[9] = P. falciparum Dd2 growth inhibitors, dose response, SYBR Green, cherry-picked samples (AID 1159567); format: functional, cell-based
[10] = inhibitors of HIV Env-driven cell fusion, dose response, cherry-pick (AID 652057); format: functional, cell-based
[11] = ZM109 Env clade C HIV-1 fusion inhibitors, dose response, HeLa effector, CEM target cells, luciferase, cherry-pick (AID 652058); format: functional, cell-based
[12] = inhibitors of clade B AD8 Env fusion, dose response, cell-based, cherry-pick (AID 652062); format: functional;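 note: luciferase signal from cell-cell fusion driven by HIV-1 clade B AD8 Env; potency is for inhibitors of fusion seen as a drop in luminescence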
[13] = Shn3 3'UTR reporter inhibitors, dose response, cell-based, Clone20 osteoblasts, firefly luciferase, cherry-picked (AID 624132); format: functional;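 note: firefly luciferase luminescence from reporter carrying the Shn3 3'UTR in osteoblasts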

For `Sc1nnc(-c2ccc(Cl)cc2Cl)n1-c1ccccc1`, the EC50 [1] was 14.9 µM (active), the EC50 [2] was 15.5 µM (active) and the EC50 [3] was 56.4 µM (active).

In the case of `O=C(COC(=O)c1ccc(Br)o1)NCc1ccco1`, the IC50 [4] is reported as 9.79 µM (active).

In the case of `CC(=O)Nc1ccccc1N(CC(O)Cn1c2ccccc2c2ccccc21)S(=O)(=O)c1ccc(C)cc1` (configuration not stated), the EC50 [5] is reported as 17.1 µM (active) and the EC50 [6] is reported as 13.5 µM (active).

For `COc1ccc(NC(=O)Nc2cccc3cccnc23)cc1`, the EC50 [1] was 21.2 µM (active), the EC50 [2] was 21.7 µM (active) and the EC50 [3] was 5.48 µM (active).

With `Cc1ccn2c(=O)nc(SCC(=O)NCc3ccc4c(c3)OCO4)nc2c1` the IC50 [4] was 10.5 µM (active).

With `CC(=O)OCC1=C(C(=O)OC(C)(C)C)N2C(=O)[C@@H](NC(=O)Cc3ccccc3)[C@H]2SC1` the IC50 [4] was 8.61 µM (active).

For `Cc1cccc(C(=O)NC2CCN(C(=O)NCc3ccccc3)CC2)c1`, the IC50 [4] was 12.1 µM (active).

In the case of `CC1=CC(C)(C)n2c(O)c(C3=NC(=S)NC3=O)c3cc(OC(=O)c4cccc5ccccc45)cc1c32`, the EC50 [5] is reported as 24 µM (active) and the EC50 [6] is reported as 19.6 µM (active).

In the case of `COc1ccc(C2Nc3ccccc3C(=O)N2O)cc1OC` (configuration not stated), the EC50 [7] is reported as > 38 µM (not active) and the EC50 [8] is reported as > 150 µM (inactive).

For `O=C(C1CCC1)N1CC(=O)N2[C@H](CO)[C@@H](c3ccc(C#CCc4ccccc4)cc3)[C@H]2C1`, the AC50 [9] was 9.44 µM (active).

In the case of `O=C(CN1C(=O)S/C(=C\c2ccc(O)c([N+](=O)[O-])c2)C1=O)Nc1ccc(N2CCOCC2)cc1`, the IC50 [4] is reported as 2.65 µM (active).

With `CCOc1ccc(C2CC(c3ccc(CC)cc3)Nc3nc(N)nn32)cc1` (configuration not stated) the EC50 [1] was 19.7 µM (active), the EC50 [2] was > 120 µM (not active) and the EC50 [3] was 10.5 µM (active).

For `C[C@H](CO)N1C[C@H](C)[C@H](CN(C)C(=O)Cc2ccccc2)OCc2ccccc2-c2c(n(C)c3ccccc23)C1=O`, the AC50 [10] was < 0.26 µM (active), the AC50 [11] was < 0.26 µM (active) and the AC50 [12] was < 0.26 µM (active).

For `NS(=O)(=O)c1ccc(CNC(=S)NC(=O)c2ccco2)cc1`, the AC50 [13] was 22.9 µM (active).

With `CCOC(=O)C1(C)Oc2ccccc2C(C(=O)OC)=C1C(=O)OC` (configuration not stated) the IC50 [4] was 23.6 µM (active).

With `CCOC(=O)c1cc(O)n2c(n1)nc1ccccc12` the EC50 [1] was 20.4 µM (active), the EC50 [2] was 15.8 µM (active) and the EC50 [3] was 11.4 µM (active).

In the case of `Cc1ccc(Cn2ncn(-c3ccccc3)c2=O)cc1`, the EC50 [1] is reported as 7.14 µM (active), the EC50 [2] is reported as 14.4 µM (active) and the EC50 [3] is reported as 24.1 µM (active).
